# Reference: patent publication US8470872B2, “Compounds with activity at estrogen receptors” (Acadia Pharmaceuticals Inc., priority 2007, dated 2013)
# Assays:
# [1] = molecular target: T1, ERβ (Homo sapiens, UniProt Q92731); experiment: R-SAT (Receptor Selection and Amplification Technology) functional assay, ERβ; assay type: cell-based; parameters: expressed in transfected cells; host or cells: NIH-3T3 fibroblasts, transient transfection; conditions: NIH-3T3 fibroblasts transfected with receptor, na = not active; for EC50: read-out: R-SAT ERβ pEC50 (converted)
# Excerpt: (§1) R-SAT® (Receptor Selection and Amplification Technology) is a cell-based functional assay that allows one to monitor receptor-dependent proliferative responses and has been described elsewhere. The technology has been validated for a number of receptors including GPCRs (Brauner-Osborne and Brann 1996), RTKs (Burstein et al. 1998), cytokine receptors (Piu et al. 2002) and nuclear receptors (Piu et al. 2005; Piu et al. 2006). This process is achieved by partial cellular transformation via loss of contact inhibition and growth factor dependency. Monitoring is achieved by transfecting the cells with a β-galactosidase reporter gene vector whose expression is under a constitutively active promoter. Briefly, NIH-3T3 fibroblasts were plated overnight in 96-wells plates in DMEM 10% calf serum (Hyclone) and grown to 60-70% confluency prior to transfection. Transient transfections were performed using Polyfect (Qiagen) according to manufacturer's instructions. Typically a transfection mix would consist of the receptor and the β-galactosidase expression vectors. Sixteen hours post-transfection, cells were incubated with different doses of ligand in DMEM containing 30% Ultraculture (Hyclone) and 0.4% calf serum (Hyclone) to generate a dose response curve. After 5 days, plates were developed by adding onto the washed cells a solution containing the β-galactosidase substrate o-nitrophenyl-D-galacto pyranoside ONPG (in phosphate-buffered saline with 5% Nonidet P-40 detergent) as described (Piu et al. 2002). Plates were read using a microplate reader at 420 nm. Data from R-SAT® assays were fit to the equation: r=A+B(x/(x+c)), where A=minimum response, B=maximum response minus minimum response, c=EC50, r=response, and x=concentration of ligand. Curves were generated using the curve fitting softwares Excel Fit and GraphPad Prism (San Diego, Calif.).
# [2] = molecular target: T1, ERβ; experiment: Luciferase reporter gene assay (3*ERE) in HEK293 cells, ERβ; assay type: cell-based; conditions: 48 hours with test compounds; for EC50: read-out: Luciferase ERβ pEC50 (converted)
# Protocol: (§2) HEK293 cells were grown to 70% confluency in DMEM containing 10% calf serum (Hyclone) prior to transfection. On the day of transfection (day 1), expression vectors for ERa or ERb were cotransfected along a construct containing a synthetic 3*ERE (estrogen response element) upstream of the luciferase gene (Panomics), using Polyfect (Qiagen) per manufacturer's recommendations. Sixteen hours post-transfection, cells were incubated in serum free DMEM. On day 3, cells were incubated with the test compounds for 48 hours in serum free DMEM. Cells extracts were then obtained by lyzing and the Luciferase activity measured. All of these steps were performed using a commercially available kit (Promega).
# [3] = molecular target: T2, ERα (Homo sapiens, UniProt P03372); experiment: Luciferase reporter gene assay (3*ERE) in HEK293 cells, ERα; assay type: cell-based; conditions: 48 hours with test compounds; for EC50: read-out: Luciferase ERα pEC50 (converted)
# T2 sequence (P03372 1-595): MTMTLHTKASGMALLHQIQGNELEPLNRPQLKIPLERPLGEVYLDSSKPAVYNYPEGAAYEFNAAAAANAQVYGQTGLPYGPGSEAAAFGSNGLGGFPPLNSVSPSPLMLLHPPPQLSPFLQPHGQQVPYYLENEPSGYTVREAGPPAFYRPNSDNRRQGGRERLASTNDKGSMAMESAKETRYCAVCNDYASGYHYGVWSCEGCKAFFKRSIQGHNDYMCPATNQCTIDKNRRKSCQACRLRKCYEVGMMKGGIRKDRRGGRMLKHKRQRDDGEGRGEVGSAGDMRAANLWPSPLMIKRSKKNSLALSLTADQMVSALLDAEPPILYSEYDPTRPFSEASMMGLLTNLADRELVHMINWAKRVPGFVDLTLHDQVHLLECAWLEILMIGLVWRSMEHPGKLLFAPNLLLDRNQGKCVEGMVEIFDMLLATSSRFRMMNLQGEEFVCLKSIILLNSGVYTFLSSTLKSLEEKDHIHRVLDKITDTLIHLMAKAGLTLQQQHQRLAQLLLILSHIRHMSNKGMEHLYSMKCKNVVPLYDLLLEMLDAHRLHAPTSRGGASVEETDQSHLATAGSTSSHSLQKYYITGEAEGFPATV
# Protocol: as §2
# [4] = molecular target: T2, ERα; experiment: R-SAT (Receptor Selection and Amplification Technology) functional assay, ERα; assay type: cell-based; parameters: expressed in transfected cells; host or cells: NIH-3T3 fibroblasts, transient transfection; conditions: NIH-3T3 fibroblasts transfected with receptor, na = not active; for EC50: read-out: R-SAT ERα pEC50 (converted)
# Excerpt: as §1
# [5] = molecular target: T2, ERα; experiment: Competitive 3H-estradiol binding assay, ERα; conditions: cytosolic extracts of transfected HEK293T cells, 1 nM 3H-estradiol; read-out: Binding ERα pKi (converted)
# Protocol: (§3) HEK293T cells were transiently transfected for 48 hours with expression vectors encoding ERα or ERβ, before being serum starved for 4-6 hours. Cells were then harvested by scraping in ice-cold PBS and subsequently lysed using a cold buffer containing 10 mM Tris pH 7.4, 1 mM EDTA, 1 mM DTT before being subjected to polytron twice for 10 seconds. Cytosolic extracts were isolated by centrifugation at 15000 g for 30 minutes at 4° C. Competitive binding of the test compounds or the estradiol control was performed on 20 uL extract by overnight incubation at 4° C. in a total volume of 100 μL containing 1 nM ^3H-estradiol (Perkin Elmer, Boston, Mass.). The bound fraction was separated from the unbound one by the addition of 100 μL of Dextran coated charcoal, incubated for 10 minutes and subsequent centrifugation at 1000 rpm for 10 minutes. Samples (100 μL per sample) were then analyzed by liquid scintillation. Data was then analyzed using the curve fitting software GraphPad Prism.
# [6] = molecular target: T1, ERβ; experiment: Competitive 3H-estradiol binding assay, ERβ; conditions: cytosolic extracts of transfected HEK293T cells, 1 nM 3H-estradiol; read-out: Binding ERβ pKi (converted)
# Protocol: as §3
# T1 sequence (Q92731 whole entry, species assumed): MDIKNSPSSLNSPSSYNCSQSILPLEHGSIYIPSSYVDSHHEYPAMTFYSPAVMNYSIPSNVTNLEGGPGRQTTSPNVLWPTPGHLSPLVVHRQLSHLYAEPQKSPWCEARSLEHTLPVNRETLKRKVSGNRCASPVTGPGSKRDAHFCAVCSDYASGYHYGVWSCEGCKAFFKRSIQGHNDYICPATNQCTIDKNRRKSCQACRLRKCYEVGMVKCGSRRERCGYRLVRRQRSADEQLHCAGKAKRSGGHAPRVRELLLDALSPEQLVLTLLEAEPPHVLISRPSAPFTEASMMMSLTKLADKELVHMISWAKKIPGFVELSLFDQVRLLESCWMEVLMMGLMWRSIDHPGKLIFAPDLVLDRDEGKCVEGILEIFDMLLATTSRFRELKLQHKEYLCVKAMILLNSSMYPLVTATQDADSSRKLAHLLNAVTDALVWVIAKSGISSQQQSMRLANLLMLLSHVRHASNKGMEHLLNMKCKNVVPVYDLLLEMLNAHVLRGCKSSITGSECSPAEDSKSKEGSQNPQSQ
Compound,R-SAT ERβ % Eff [1] [%],EC50 [1] [nM],Luciferase ERβ % Eff [2] [%],EC50 [2] [nM],Luciferase ERα % Eff [3] [%],EC50 [3] [nM],R-SAT ERα % Eff [4] [%],EC50 [4] [nM],Ki [5] [nM],Ki [6] [nM]
"Oc1ccc(C23CCCCCC2Oc2cccc(F)c23)cc1 (single isomer, unassigned) [Compound 231, 4-(1-Fluoro-6,7,8,9,10,10a-hexahydro-5aH-benzo[b]cyclohepta[d]-furan-10a-yl)phenol]",91,1,114,0.158,43,200,86,158,–,–
"Oc1ccc(C23CCCCCC2Oc2cccc(F)c23)cc1 (single isomer, unassigned) [Compound 232, 4-(1-Fluoro-6,7,8,9,10,10a-hexahydro-5aH-benzo[b]cyclohepta[d]-furan-10a-yl)phenol]",76,10,80,7.94,27,1260,37,794,–,–
"Oc1ccc(C23CCCCCC2Oc2cccc(F)c23)cc1 (single isomer, unassigned) [Compound 982, 4-(1-Fluoro-6,7,8,9,10,10a-hexahydro-5aH-benzo[b]cyclohepta[d]-furan-10a-yl)phenol]",87,0.0501,–,–,–,–,108,15.8,–,–
"Oc1ccc(C23CCCCC2Oc2cccc(F)c23)cc1 (centres unmarked) [Compound 130, 4-(1-Fluoro-5a,6,7,8,9,9a-hexahydrodibenzo[b,d]furan-9a-yl)phenol]",97,6.31,129,2.51,51,631,70,631,126,25.1
"Oc1ccc(C23CCCCC=C2Oc2cccc(F)c23)cc1 (centres unmarked) [Compound 349, (E)-4-(1-Fluoro-8,9,10,10a-tetrahydro-7H-benzo[b]cyclohepta-[d]furan-10a-yl)phenol]",24,–,–,316,6.4,–,16,–,–,–
"Oc1ccc(C23CCCCCC2Oc2c(F)cccc23)cc1 (centres unmarked) [Compound 447, 4-(4-Fluoro-6,7,8,9,10,10a-hexahydro-5aH-benzo[b]cyclohepta-[d]furan-10a-yl)phenol]",85,5.01,122,0.631,25,398,97,398,–,–

# More lines, now with the values ahead:
R-SAT ERβ % Eff [1] [%],EC50 [1] [nM],Luciferase ERβ % Eff [2] [%],EC50 [2] [nM],Luciferase ERα % Eff [3] [%],EC50 [3] [nM],R-SAT ERα % Eff [4] [%],EC50 [4] [nM],Ki [5] [nM],Ki [6] [nM],Compound
83,1.26,114,0.1,36,316,92,398,–,–,"Oc1ccc(C23CCCCCC2Oc2ccc(F)cc23)cc1 (centres unmarked) [Compound 448, 4-(2-Fluoro-6,7,8,9,10,10a-hexahydro-5aH-benzo[b]cyclohepta[d]-furan-10a-yl)phenol]"
99,1.26,81,0.316,51,316,93,398,79.4,5.01,"Oc1ccc(C23CCCCCC2Oc2ccccc23)cc1 (centres unmarked) [Compound 807, 4-(6,7,8,9,10,10a-Hexahydro-5aH-benzo[b]cyclohepta[d]furan-10a-yl)phenol]"
100,10,86,7.94,54,794,95,1000,–,–,"Oc1ccc(C23CCCCC2Oc2ccccc23)cc1 (centres unmarked) [Compound 961, 4-(5a,6,7,8,9,9a-Hexahydrodibenzo[b,d]furan-9a-yl)phenol]"
